Measurements published in patent US12252524B2, “GIP/GLP1 co-agonist compounds” (Eli Lilly and Company, priority 2018, dated 2025).
Read-outs that look alike come from different tables or passages of the source. Each block holds one compound with its values, some of them ahead of it. Numbered stars: 1 amine (or outer) side, 2 acyl side, 3 side chain; on linkers, the order of the positions; unused ones are H or OH. Square brackets hold non-standard residues; d marks the D form. Side chains are listed from the residue outwards. Peptide text beside a SMILES is read from it. * marks the point of attachment. C20 diacid = O=C(O)CCCCCCCCCCCCCCCCCCC(=O)*; C18 diacid = O=C(O)CCCCCCCCCCCCCCCCC(=O)*; γGlu = O=C(O)[C@H](CCC(=O)[*:2])N[*:1]; αMeF = C[C@](N)(Cc1ccccc1)C(=O)O; αMeL = CC(C)C[C@](C)(N)C(=O)O; AEEA = NCCOCCOCC(=O)O; Aib = CC(C)(N)C(=O)O

Columns and labels:
[1] = system: CD8+ T cell depleted peripheral blood mononuclear cells
human GLP-1R = human GLP-1R (Homo sapiens, UniProt P43220); assay: GLP-1R CHO cell β-arrestin recruitment assay; assay type: cell-based; design: host or cells: CHO-K1 PathHunter cells, assay-ready frozen; conditions: for hGLP1R B-Arrestin2 % Top: normalized to GLP-1 maximum control
Summary of the method: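 Peptide-induced β-arrestin-2 recruitment measured by enzyme-fragment complementation luminescence after 90 min at 37 °C plus 60 min detection at RT.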

[2] = Proteolytic stability assay in 1% rat small intestinal fluid (rSIF)
Protocol: The stability of peptides are compared in 1% rat small intestinal fluid (rSIF). The amount of intact peptide is measured for a sample peptide at 0, 3, 15, and 30 minutes to assess proteolytic stability. The amount of intact peptide for a sample peptide is measured in 90% pig small intestinal fluid (pSIF) at 0, 30, 45, and 60 minutes to assess the proteolytic stability.
Peptides are prepared at 0.4 mg/mL in 50 mM Tris pH8.0. […] The mixture is incubated at 37° C. at 150 rpm. Thirty μL of each sample are removed and placed into a new tube before the rSIF is added and at […]. At each time point, the reaction was quenched by 1% TFA in 50% ACN at 1:1. The samples are diluted 100 times using dilution buffer (1:1 of 1% TFA in 50% ACN: 50 mM Tris pH8) and ready for analysis using mass spectrometry (MS).
(§1) The data analysis is performed using MassLynx.

[3] = Proteolytic stability assay in 90% pig small intestinal fluid (pSIF); assay type: in vitro ADME; conditions: 90% pSIF, 37° C.
Protocol: Peptides are diluted to a concentration of 0.4 mg/mL in 90% pig small intestinal fluid. After the mixing, 20 μL are immediately removed (time 0 for the time point of pre-incubation). The mixture is then incubated at 37° C. at 150 rpm. […] The sample is centrifuged at 20,000×g for 20 min at 4° C.
as §1

[4] = Peptide stability in 50% v/v pig small intestinal fluid with and without protease inhibitor; assay type: in vitro ADME; conditions: for % peptide intact: 0 min; for remaining at 0.25 h: 15 min; for remaining at 0.25 h / remaining at 0.5 h / remaining at 1 h: read-out: % peptide intact; for remaining at 0.5 h: 30 min; for remaining at 1 h: 60 min
Protocol: A peptide is incubated at 37° C. in 1% (v/v) rat small intestinal fluid or 50% (v/v) pig small intestinal fluid with and without a peptidase inhibitor. At different time points, samples are taken out, followed by quenching with 1% TFA in 50% ACN/water to stop the enzyme activity. The intact peptide at different time points is analyzed by high-performance liquid chromatography (HPLC) equipped with an ultraviolet (UV) detector or LC-MS/MS and normalized to the amount of peptide before mixing with the enzyme solution.

[5] = system: CD8+ T cell depleted peripheral blood mononuclear cells; assay: CD4+ T cell assay for potential clinical immunogenicity
[6] = CHO-K1 cells, PathHunter β-arrestin-2 recruitment, 0.1% casein, read-out: hGLP1R B-Arrestin2 Rel EC50 uM (SEM, n)
[7] = rat, real gastrointestinal fluid or homogenate, pH 8
[8] = pH 8, with rSBTI (5 mg/mL), protease inhibitor, rSBTI (5 mg/mL)

Chain of human GLP-1R (P43220 24-463): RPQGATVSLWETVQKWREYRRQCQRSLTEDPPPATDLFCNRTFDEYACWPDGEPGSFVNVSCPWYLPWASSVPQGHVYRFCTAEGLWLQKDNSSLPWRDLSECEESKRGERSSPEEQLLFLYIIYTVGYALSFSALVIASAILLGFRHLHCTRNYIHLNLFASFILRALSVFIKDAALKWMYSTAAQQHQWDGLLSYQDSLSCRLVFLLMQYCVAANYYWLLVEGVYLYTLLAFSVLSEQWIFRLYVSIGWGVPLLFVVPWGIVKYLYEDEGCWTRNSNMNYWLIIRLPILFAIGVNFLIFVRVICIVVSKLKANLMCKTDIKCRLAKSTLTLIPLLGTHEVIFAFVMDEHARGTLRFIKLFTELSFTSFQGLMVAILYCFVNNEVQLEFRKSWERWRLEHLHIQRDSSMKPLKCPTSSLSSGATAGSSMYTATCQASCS

frequency of positive CD+ T cell response (CDI>2.5) [1]: low
EC50 (human GLP-1R; [6]): 0.0179 µM
hGLP1R B-Arrestin2 % Top (human GLP-1R): 47.7%
SMILES: CC[C@H](C)[C@H](NC(=O)[C@H](CC(C)C)NC(=O)[C@H](Cc1ccc(O)cc1)NC(=O)[C@H](CCC(=O)O)NC(=O)[C@@H](NC(=O)[C@H](Cc1ccccc1)NC(=O)[C@H](C)NC(=O)C(C)(C)NC(=O)[C@H](CCC(N)=O)NC(=O)[C@H](C)NC(=O)[C@H](CCCCNC(=O)COCCOCCNC(=O)COCCOCCNC(=O)CC[C@H](NC(=O)CCCCCCCCCCCCCCCCC(=O)O)C(=O)O)NC(=O)[C@H](CCC(=O)O)NC(=O)[C@H](CC(=O)O)NC(=O)[C@H](CC(C)C)NC(=O)[C@](C)(CC(C)C)NC(=O)[C@@H](NC(=O)[C@H](CO)NC(=O)[C@H](Cc1ccc(O)cc1)NC(=O)[C@H](CC(=O)O)NC(=O)[C@H](CO)NC(=O)[C@@H](NC(=O)[C@H](Cc1ccccc1)NC(=O)[C@@H](NC(=O)CNC(=O)[C@H](CCC(=O)O)NC(=O)C(C)(C)NC(=O)[C@@H](N)Cc1ccc(O)cc1)[C@@H](C)O)[C@@H](C)O)[C@@H](C)CC)[C@@H](C)CC)C(=O)N[C@@H](CCC(=O)O)C(=O)NCC(=O)NCC(=O)N1CCC[C@H]1C(=O)N[C@@H](CO)C(=O)N[C@@H](CO)C(=O)NCC(N)=O [Example 303] (H-Y[Aib]EGTFTSDYSI[αMeL]LDEK([AEEA-AEEA-γGlu-C18 diacid])AQ[Aib]AFIEYLIEGGPSSG-NH2)

frequency of positive CD+ T cell response (CDI>2.5) [1]: low
EC50 (human GLP-1R; [6]): 0.00267 µM
hGLP1R B-Arrestin2 % Top (human GLP-1R): 93.7%
SMILES: CC[C@H](C)[C@H](NC(=O)[C@H](CC(C)C)NC(=O)[C@H](Cc1ccc(O)cc1)NC(=O)[C@H](CCC(=O)O)NC(=O)[C@@H](NC(=O)[C@H](Cc1ccccc1)NC(=O)[C@H](C)NC(=O)C(C)(C)NC(=O)[C@H](CCC(N)=O)NC(=O)[C@H](C)NC(=O)[C@H](CCCCNC(=O)COCCOCCNC(=O)COCCOCCNC(=O)CC[C@H](NC(=O)CCCCCCCCCCCCCCCCC(=O)O)C(=O)O)NC(=O)[C@H](CCCCN)NC(=O)[C@H](CC(=O)O)NC(=O)[C@H](CC(C)C)NC(=O)[C@H](CC(C)C)NC(=O)[C@@H](NC(=O)[C@H](CO)NC(=O)[C@H](Cc1ccc(O)cc1)NC(=O)[C@H](CC(=O)O)NC(=O)[C@H](CO)NC(=O)[C@@H](NC(=O)[C@](C)(Cc1ccccc1)NC(=O)[C@@H](NC(=O)CNC(=O)[C@H](CCC(=O)O)NC(=O)C(C)(C)NC(=O)[C@@H](N)Cc1ccc(O)cc1)[C@@H](C)O)[C@@H](C)O)[C@@H](C)CC)[C@@H](C)CC)C(=O)N[C@@H](CCC(=O)O)C(=O)NCC(=O)NCC(=O)N1CCC[C@H]1C(=O)N[C@@H](CO)C(=O)N[C@@H](CO)C(=O)NCC(N)=O [Example 301] (H-Y[Aib]EGT[αMeF]TSDYSILLDKK([AEEA-AEEA-γGlu-C18 diacid])AQ[Aib]AFIEYLIEGGPSSG-NH2)

SMILES: CC[C@H](C)[C@H](NC(=O)[C@H](CC(C)C)NC(=O)[C@](C)(Cc1ccc(O)cc1)NC(=O)[C@@H](CCC(=O)O)NC(=O)[C@@H](NC(=O)[C@H](Cc1ccccc1)NC(=O)[C@H](CCC(=O)O)NC(=O)C(C)(C)NC(=O)[C@H](CCC(N)=O)NC(=O)[C@H](C)NC(=O)[C@H](CCCCNC(=O)COCCOCCNC(=O)COCCOCCNC(=O)CC[C@H](NC(=O)CCCCCCCCCCCCCCCCC(=O)O)C(=O)O)NC(=O)[C@H](CCCN)NC(=O)[C@H](CC(=O)O)NC(=O)[C@H](CC(C)C)NC(=O)[C@](C)(CC(C)C)NC(=O)[C@@H](NC(=O)[C@H](CO)NC(=O)[C@H](Cc1ccncc1)NC(=O)[C@H](CC(=O)O)NC(=O)[C@H](CO)NC(=O)[C@@H](NC(=O)[C@](C)(Cc1ccccc1F)NC(=O)[C@@H](NC(=O)CNC(=O)[C@H](CCC(=O)O)NC(=O)C(C)(C)NC(=O)[C@@H](N)Cc1ccc(O)cc1)[C@@H](C)O)[C@@H](C)O)[C@@H](C)CC)[C@@H](C)CC)C(=O)N[C@@H](CCC(=O)O)C(=O)NCC(=O)NCC(=O)N1CCC[C@H]1C(=O)N[C@@H](CO)C(=O)N[C@@H](CO)C(=O)NCC(=O)N[C@@H](C)C(=O)N1CCC[C@H]1C(=O)N1CCC[C@H]1C(=O)N1CCC[C@H]1C(=O)N[C@@H](CO)C(N)=O [Example 4]
percentage of peptide not cleaved using rSIF ([2]; 0 min, 1% rSIF, 37° C.): 100%
remaining at 0.05 h, 0.4 mg/mL [2, 7]: 97.9%
remaining at 0.25 h, 0.4 mg/mL [2, 7]: 99.3%
remaining at 1 h, 0.4 mg/mL [2, 7]: 89.4%
percentage of peptide not cleaved using pSIF ([3]; 0 min): 100%
remaining at 0.5 h, 0.4 mg/mL ([3]; pig, 90% pig small intestinal fluid (pSIF), 30 min, read-out: percentage of peptide not cleaved using pSIF): 73.4%
remaining at 0.75 h, 0.4 mg/mL ([3]; pig, 90% pig small intestinal fluid (pSIF), 45 min, read-out: percentage of peptide not cleaved using pSIF): 56.4%
remaining at 1 h, 0.4 mg/mL ([3]; pig, 90% pig small intestinal fluid (pSIF), 60 min, read-out: percentage of peptide not cleaved using pSIF): 60%
% peptide intact ([4]; no PI, control): 100.00%
remaining at 0.25 h ([4]; pH 8, no PI, control): 72.5%
remaining at 0.5 h ([4]; pH 8, no PI, control): 41.4%
remaining at 1 h ([4]; pH 8, no PI, control): 19%
remaining at 0.25 h [4, 8]: 97%
remaining at 0.5 h [4, 8]: 96.3%
remaining at 1 h [4, 8]: 88.6%
% peptide intact ([4]; rSBTI (5 mg/mL)): 100.00%
frequency of positive CD+ T cell response (CDI>2.5) ([5]; CD4+ T cell assay): low
% Donor Response (CD4+ T cell response) ([5]; Examples 10 uM, KLH 0.33 μM, 7 days): 0%
EC50 (human GLP-1R): 0.0048 µM
hGLP1R B-Arrestin2 % Top (human GLP-1R): 92.4%

SMILES: CC[C@H](C)[C@H](NC(=O)[C@H](CC(C)C)NC(=O)[C@H](Cc1ccc(O)cc1)NC(=O)[C@H](CCC(=O)O)NC(=O)[C@@H](NC(=O)[C@H](Cc1ccccc1)NC(=O)[C@H](C)NC(=O)C(C)(C)NC(=O)[C@H](CCC(N)=O)NC(=O)[C@H](C)NC(=O)[C@H](CCCCNC(=O)COCCOCCNC(=O)COCCOCCNC(=O)CC[C@H](NC(=O)CCCCCCCCCCCCCCCCCCC(=O)O)C(=O)O)NC(=O)[C@H](CCCCN)NC(=O)[C@H](CC(=O)O)NC(=O)[C@H](CC(C)C)NC(=O)[C@H](CC(C)C)NC(=O)[C@@H](NC(=O)[C@H](CO)NC(=O)[C@H](Cc1ccc(O)cc1)NC(=O)[C@H](CC(=O)O)NC(=O)[C@H](CO)NC(=O)[C@@H](NC(=O)[C@H](Cc1ccccc1)NC(=O)[C@@H](NC(=O)CNC(=O)[C@H](CCC(=O)O)NC(=O)C(C)(C)NC(=O)[C@@H](N)Cc1ccc(O)cc1)[C@@H](C)O)[C@@H](C)O)[C@@H](C)CC)[C@@H](C)CC)C(=O)N[C@@H](C)C(=O)NCC(=O)NCC(=O)N1CCC[C@H]1C(=O)N[C@@H](CO)C(=O)N[C@@H](CO)C(=O)NCC(=O)N[C@@H](C)C(=O)N1CCC[C@H]1C(=O)N1CCC[C@H]1C(=O)N1CCC[C@H]1C(=O)N[C@@H](CO)C(N)=O [Example 288] (H-Y[Aib]EGTFTSDYSILLDKK([AEEA-AEEA-γGlu-C20 diacid])AQ[Aib]AFIEYLIAGGPSSGAPPPS-NH2; N-terminus assumed)
frequency of positive CD+ T cell response (CDI>2.5) [1]: low
EC50 (human GLP-1R; [6]): 0.00674 µM
hGLP1R B-Arrestin2 % Top (human GLP-1R): 21.3%

SMILES: CC[C@H](C)[C@H](NC(=O)[C@H](CC(C)C)NC(=O)[C@H](Cc1ccc(O)cc1)NC(=O)[C@H](CCC(=O)O)NC(=O)[C@@H](NC(=O)[C@H](Cc1ccccc1)NC(=O)[C@H](CCC(=O)O)NC(=O)C(C)(C)NC(=O)[C@H](CCC(N)=O)NC(=O)[C@H](C)NC(=O)[C@H](CCCCNC(=O)COCCOCCNC(=O)COCCOCCNC(=O)CC[C@H](NC(=O)CCCCCCCCCCCCCCCCCCC(=O)O)C(=O)O)NC(=O)[C@H](CCCCN)NC(=O)[C@H](CC(=O)O)NC(=O)[C@H](CC(C)C)NC(=O)[C@](C)(CC(C)C)NC(=O)[C@@H](NC(=O)[C@H](CO)NC(=O)[C@H](Cc1ccc(O)cc1)NC(=O)[C@H](CC(=O)O)NC(=O)[C@H](CO)NC(=O)[C@@H](NC(=O)[C@H](Cc1ccccc1)NC(=O)[C@@H](NC(=O)CNC(=O)[C@H](CCC(=O)O)NC(=O)C(C)(C)NC(=O)[C@@H](N)Cc1ccc(O)cc1)[C@@H](C)O)[C@@H](C)O)[C@@H](C)CC)[C@@H](C)CC)C(=O)N[C@@H](C)C(=O)NCC(=O)NCC(=O)N1CCC[C@H]1C(=O)N[C@@H](CO)C(=O)N[C@@H](CO)C(=O)NCC(=O)N[C@@H](C)C(=O)N1CCC[C@H]1C(=O)N1CCC[C@H]1C(=O)N1CCC[C@H]1C(=O)N[C@@H](CO)C(N)=O [Example 289] (H-Y[Aib]EGTFTSDYSI[αMeL]LDKK([AEEA-AEEA-γGlu-C20 diacid])AQ[Aib]EFIEYLIAGGPSSGAPPPS-NH2)
frequency of positive CD+ T cell response (CDI>2.5) [1]: low
EC50 (human GLP-1R; [6]): 0.0124 µM
hGLP1R B-Arrestin2 % Top (human GLP-1R): 51.3%
